Assays:
Assay type in all cases: cell-based
[1] = test system: K562; experiment: Cytostatic/cytotoxic MTT assay, K562; conditions: Homo sapiens, K562; 72 h incubation; read-out: MTT, IC50 K562
Source text: (§1) Unless otherwise stated, all cells were purchased from the […] (ATCC). The CCRF-CEM line is derived from T lymphoblastic leukemia, evincing high chemosenzitivity, K562 represent cells from a […] patient sample with bcr-abl translocation, HCT116 is colorectal tumor cell line and its p53 gene knock-down counterpart (HCT116p53−/−, Horizon Discovery, UK) is a model of human cancers with p53 inactivation frequently associated with poor prognosis, A549 cell line is lung adenocarcinoma. The daunorubicin resistant subline of CCRF-CEM cells (CEM-DNR bulk) and paclitaxel resistant subline K562-TAX were selected in our laboratory by cultivation of maternal cell lines in increasing concentrations of daunorubicine or paclitaxel, respectively. The CEM-DNR cells overexpress mrp-1 and mdr-1 genes, while K562-TAX cells overexpress mdr-1 only. Both proteins belong to the family of ABC transporters and are involved in the primary and/or acquired multidrug resistance phenomenon (ref.: Gottesman, M. M.; Fojo, T.; Bates, S. E. Multidrug resistance in cancer: role of ATP-dependent transporters. Nat. Rev. Cancer. 2002, 2, 48-58. (b) Noskova, V.; Dzubak, P.; Kuzmina, G.; Ludkova, A.; Stehlik, D.; Trojanec, R.; Janostakova, A.; Korinkova, G.; Mihal, V.; Hajduch, M. In vitro chemoresistance profile and expression/function of MDR associated proteins in resistant cell lines derived from CCRF-CEM, K562, A549 and MDA MB 231 parental cells. Neoplasma 2002, 49, 418-425). Non-malignant MRC-5 and BJ cells, derived from normal human fibroblasts, were used as controls. The cells were maintained in Nunc/Corning 80 cm^2 plastic tissue culture flasks and cultured in cell culture medium (DMEM/RPMI 1640 with 5 g/L glucose, 2 mM glutamine, 100 U/mL penicillin, 100 µg/mL streptomycin, 10% fetal calf serum, and NaHCO3). Cell suspensions were prepared and diluted according to the particular cell type and the expected target cell density (25,000-30,000 cells/well based on cell growth characteristics). Cells were added by pipette (80 L) into 96-well microtiter plates. Inoculates were allowed a pre-incubation period of 24 h at 37° C. and 5% CO2 for stabilization. Four-fold dilutions, in 20-L aliquots, of the intended test concentration were added to the microtiter plate walls at time zero. All test compound concentrations were examined in duplicate. Incubation of the cells with the test compounds lasted for 72 h at 37° C., in a 5% CO2 atmosphere at 100% humidity. At the end of the incubation period, the cells were assayed using MTT. Aliquots (10 L) of the MTT stock solution (5 mg/ml) were pipetted into each well and incubated for another 1-4 h. After this incubation period the formazan produced was dissolved by addition of 100 µL/well of 10% aq SDS (pH 5.5), followed by a further incubation at 37° C. overnight. The optical density was measured at 540 nm. The IC50 value, the drug concentration inhibiting the cell growth by 50%, was calculated from appropriate dose-response curves.
(§2) In vitro cytotoxic/cytostatic activity final nucleosides 1-5 was initially evaluated against […] cell lines derived from human solid tumors including lung (A549 cells) and colon (HCT116 and HCT116p53−/−) carcinomas, as well as leukemia cell lines (CCRF-CEM, CEM-DNR, K562 and K562-TAX) and, for comparison, non-malignant BJ and MRC-5 fibroblasts. Concentrations inhibiting the cell growth by 50% (IC50) were determined using a quantitative metabolic staining with 3-(4,5-dimethylthiazol-2-yl)-2,5-diphenyltetrazolium bromide (MTT) (ref.: Denizot, F.; Lang, R. Rapid colorimetric assay for cell growth and survival: Modifications to the tetrazolium dye procedure giving improved sensitivity and reliability. J. Immunol. Meth. 1986, 89, 271-277) following a 3-day treatment.

[2] = test system: K562-TAX; experiment: Cytostatic/cytotoxic MTT assay, K562-TAX; conditions: Homo sapiens, paclitaxel resistant subline, 72 h, read-out: MTT, IC50 K562-TAX
Source text: as §1, §2
(§3) Multidrug resistance is a major therapeutic problem in cancer chemotherapy. […]

[3] = test system: HCT116; experiment: Cytostatic/cytotoxic MTT assay, HCT116; conditions: Homo sapiens, HCT-116; 72 h incubation; read-out: MTT, IC50 HCT116
Source text: as §1, §2, §3

[4] = test system: HCT116p53-/-; experiment: Cytostatic/cytotoxic MTT assay, HCT116p53-/-; conditions: Homo sapiens, HCT-116; 72 h incubation; read-out: MTT, IC50 HCT116 p53-/-
Source text: as §1, §2, §3

[5] = test system: HeLa S3; experiment: XTT cytotoxicity assay, HeLa S3; conditions: Homo sapiens, HeLa S3; 72 h incubation; read-out: XTT, IC50 HeLa S3
Description: HL-60, Hela S3 and HepG2 cell lines (ATCC) were grown in RPMI-1640 or DMEM medium supplemented with 10% fetal calf serum, […] of streptomycin, 200 U/mL of penicillin G and 4 mM glutamine in a humidified atmosphere containing 5% CO2 at 37° C. Sensitivity of these cell lines to the synthesized compounds was assessed with the use of XTT cell proliferation kit II (Roche Diagnostics GmbH, Mannheim, Germany) according to the manufacturer's instructions. Briefly, cells were seeded in a 96-well plate at a density of 10,000 cells per well (90 μL). After 24 h, 10 μL of the tested compounds were added to the culture media at desired concentration range and incubated for 72 h. After that 50 μL of the XTT solution was added (1 mg/mL XTT+0.383 mg/mL N-methyl dibenzopyrazine methyl sulfate). The absorbance was recorded at 495 nm following a 2 h-incubation with the dye. IC50 values were determined by non-linear regression method using GraphPad Prism version 5.00 for Windows (GraphPad Software, La Jolla, Calif., USA).
In addition, the anti-proliferative effect was tested against a human T-lymphoblastic leukemia line CCRF-CEM, promyelocytic leukemia HL-60 and cervical carcinoma HeLa S3 growing in liquid suspension. Cell viability was determined following a 3-day incubation using 2,3-bis-(2-methoxy-4-nitro-5-sulfophenyl)-2H-tetrazolium-5-carboxanilide (XTT) assay (ref.: Scudiero, D. A.; Shoemaker, R. H.; Paull, K. D.; Monks, A.; Tierney, S.; Nofziger, T. H.; Currens, M. J.; Seniff, D.; Boyd M. R. Evaluation of a Soluble Tetrazolium/Formazan Assay for Cell Growth and Drug Sensitivity in Culture Using Human and Other Tumor Cell Lines. Cancer Res. 1988, 48, 4827-4833).

[6] = test system: Huh-7 cells harboring replicon 2A; experiment: Cytotoxicity in replicon 2A cells; conditions: HCV subtype 2A replicon
Description: Compounds were also tested in Huh-7 cells harboring sub-genomic reporter replicons derived from HCV subtypes 1B and 2A (ref.: Stuyver, L. J.; Whitaker, T.; McBrayer, T. R.; Hernandez-Santiago, B. I.; Lostia, S.; Tharnish, P. M.; Ramesh, M.; Chu, C. K.; Jordan, R.; Shi, J. X.; Rachakonda, S.; Watanabe, K. A.; Otto, M. J.; Schinazi, R. F. Antimicrob. Agents Chemother. 2003, 47, 244-254).

| Compound | IC50 [1] | IC50 [2] | IC50 [3] | IC50 [4] | IC50 [5] | CC50 [6] |
| --- | --- | --- | --- | --- | --- | --- |
| CNc1ncnc2c1c(-c1cccs1)cn2[C@@H]1O[C@H](CO)[C@@H](O)[C@H]1O [Compound 3c, 4-Methylamino-7-(β-D-ribofuranosyl)-5-(thiophen-2-yl)-7H-pyrrolo[2,3-d]pyrimidine] | > 20 µM | > 20 µM | > 20 µM | > 20 µM | > 20 µM | > 44 µM |
| CNc1ncnc2c1c(-c1cc3ccccc3o1)cn2[C@@H]1O[C@H](CO)[C@@H](O)[C@H]1O [Compound 3f, 5-(Benzofuran-2-yl)-4-methylamino-7-(β-D-ribofuranosyl)-7H-pyrrolo[2,3-d]pyrimidine] | > 20 µM | > 20 µM | > 20 µM | > 20 µM | > 20 µM | > 44 µM |
| Cc1ncnc2c1c(-c1cc3ccccc3o1)cn2[C@@H]1O[C@H](CO)[C@@H](O)[C@H]1O [Compound 5f, 5-(Benzofuran-2-yl)-4-methyl-7-(β-D-ribofuranosyl)-7H-pyrrolo[2,3-d]pyrimidine] | 19.5 µM | > 20 µM | > 20 µM | > 20 µM | > 20 µM | > 44 µM |
| COc1ncnc2c1c(-c1ccoc1)cn2[C@@H]1O[C@H](CO)[C@@H](O)[C@H]1O [Compound 1b, 5-(Furan-3-yl)-4-methoxy-7-(β-D-ribofuranosyl)-7H-pyrrolo[2,3-d]pyrimidine] | 0.19 µM | 2.82 µM | 0.11 µM | 0.13 µM | 1.79 µM | > 44 µM |
| C#Cc1cn([C@@H]2O[C@H](CO)[C@@H](O)[C@H]2O)c2ncnc(C)c12 [Compound 5g, 5-Ethynyl-4-methyl-7-(β-D-ribofuranosyl)-7H-pyrrolo[2,3-d]pyrimidine] | 6.92 µM | 0.11 µM | > 20 µM | > 20 µM | 14.7 µM | > 44 µM |
| CN(C)c1ncnc2c1c(-c1ccco1)cn2[C@@H]1O[C@H](CO)[C@@H](O)[C@H]1O [Compound 4a, 4-Dimethylamino-5-(furan-2-yl)-7-(β-D-ribofuranosyl)-7H-pyrrolo[2,3-d]pyrimidine] | 0.15 µM | 1.28 µM | 0.25 µM | 0.32 µM | 1.19 µM | > 44 µM |
| C#Cc1cn([C@@H]2O[C@H](CO)[C@@H](O)[C@H]2O)c2ncnc(SC)c12 [Compound 2g, 5-Ethynyl-4-methylsulfanyl-7-(β-D-ribofuranosyl)-7H-pyrrolo[2,3-d]pyrimidine] | 0.03 µM | 0.07 µM | 0.03 µM | 0.09 µM | 0.11 µM | > 44 µM |
| CSc1ncnc2c1c(-c1ccsc1)cn2[C@@H]1O[C@H](CO)[C@@H](O)[C@H]1O [Compound 2d, 4-Methylsulfanyl-7-(β-D-ribofuranosyl)-5-(thiophen-3-yl)-7H-pyrrolo[2,3-d]pyrimidine] | 0.45 µM | > 20 µM | > 20 µM | > 20 µM | > 20 µM | > 44 µM |
| COc1ncnc2c1c(-c1ccsc1)cn2[C@@H]1O[C@H](CO)[C@@H](O)[C@H]1O [Compound 1d, 4-Methoxy-7-(β-D-ribofuranosyl)-5-(thiophen-3-yl)-7H-pyrrolo[2,3-d]pyrimidine] | 0.09 µM | 3.45 µM | 0.12 µM | 0.14 µM | 3.35 µM | > 44 µM |
| CSc1ncnc2c1c(-c1ccoc1)cn2[C@@H]1O[C@H](CO)[C@@H](O)[C@H]1O [Compound 2b, 5-(Furan-3-yl)-4-methylsulfanyl-7-(β-D-ribofuranosyl)-7H-pyrrolo[2,3-d]pyrimidine] | 0.06 µM | 3.25 µM | 0.04 µM | 0.1 µM | 5.39 µM | > 44 µM |
| Cc1ncnc2c1c(-c1ccco1)cn2[C@@H]1O[C@H](CO)[C@@H](O)[C@H]1O [Compound 5a, 5-(Furan-2-yl)-4-methyl-7-(β-D-ribofuranosyl)-7H-pyrrolo[2,3-d]pyrimidine] | 0.04 µM | 0.11 µM | 0.04 µM | 0.04 µM | 1.33 µM | 43.6 µM |
| CN(C)c1ncnc2c1c(-c1ccoc1)cn2[C@@H]1O[C@H](CO)[C@@H](O)[C@H]1O [Compound 4b, 4-Dimethylamino-5-(furan-3-yl)-7-(β-D-ribofuranosyl)-7H-pyrrolo[2,3-d]pyrimidine] | 1.54 µM | 14.9 µM | > 20 µM | > 20 µM | 9.06 µM | > 44 µM |
| CNc1ncnc2c1c(-c1ccoc1)cn2[C@@H]1O[C@H](CO)[C@@H](O)[C@H]1O [Compound 3b, 5-(Furan-3-yl)-4-methylamino-7-(β-D-ribofuranosyl)-7H-pyrrolo[2,3-d]pyrimidine] | > 20 µM | > 20 µM | > 20 µM | > 20 µM | > 20 µM | > 44 µM |
| CNc1ncnc2c1c(-c1ccsc1)cn2[C@@H]1O[C@H](CO)[C@@H](O)[C@H]1O [Compound 3d, 4-Methylamino-7-(β-D-ribofuranosyl)-5-(thiophen-3-yl)-7H-pyrrolo[2,3-d]pyrimidine] | > 20 µM | > 20 µM | > 20 µM | > 20 µM | > 20 µM | > 44 µM |
